# Results taken from patent US20100069345A1, “Lanthanide-porphyrin complexes as anti-tumor agents” (priority 2005, published 2010).
# pIC50: −log10 of the molar value.
# Experiments:
# [1] = system: human breast cancer cells (MCF-7); experiment: MTT cell viability assay, MCF-7; type: cell-based
# Description: (§1) Human cervical epitheloid carcinoma cells (HeLa), human hepatocellular carcinoma cells (HepG2 and Hep3B), human breast cancer cells (MCF-7), human coloadenocarcinoma cells (HCT-8), and normal human lung fibroblast cells (CCD-19Lu) were purchased from American Type Culture Collection (ATCC) Rockville, Md., USA. The human hepatocellular cancinoma cells QGY-7703, and the multi-drug resistant cell line QGY-TR50 derived from QGY-7703, were generously provided by Prof. Yong Xie (The Hong Kong University of Science and Technology, Hong Kong PRC). QGY-TR50 cells were isolated and cultured as described (J. Zhou, S. C. Cheng, D. Luo, Y. Xie Biochem. Biophys. Res. Commun. 2001, 280, 1237-1242). Human nasopharyngeal carcinoma cells (SUNE1 and its cisplatin-resistant variant—CNE2) were derived from poorly differentiated NPC in Chinese patients and were generously provided by Dr. S. W. Tsao (The University of Hong Kong, Hong Kong PRC). Cell culture flasks and 96-well microtitre plates were from Nalge Nunc Int. Culture medium, other medium constituents and phosphate buffer saline (PBS) were obtained by Gibco BRL Rockville, Md., USA. Cell Proliferation kit I (MTT) was purchased from Roche. Mannheim, Germany.
# [2] = system: different human liver carcinoma cells; experiment: Cytotoxicity toward different human liver carcinoma cells; type: cell-based; settings: treatment for 48 h
# Description: as §1
# [3] = system: multi-drug resistant liver tumor cells (QGY-TR50); experiment: Murine xenograft tumor model; type: in vivo, mouse; settings: 10 mg/kg/day i.p. daily for 22 days, nude mice, vs control group
# Procedure: The murine model for anti-tumor evaluation in vivo was the male BALB/c-nu/nu mouse originated from Charles River Laboratories, Inc. and the colony was maintained in the Laboratory Animal Unit, The University of Hong Kong. Mice were grafted in the left flank with QGY-TR50 cells subcutaneously. All of the experiments were carried out according to the guidelines of the Committee on the Use of Live Animals in Teaching and Research, The University of Hong Kong.
# The anti-tumor effect of complex 1 was examined in the xenograft mice model. A complex 1 suspension was prepared by dissolving the complex in 1% EtOH and mixed with a solution containing 0.2% sodium carboxymethyl cellulose (Sigma) and 0.1% Tween 80 (Sigma) in PBS. A dose tolerance test was conducted to determine the appropriate dose ranges for complex 1. […] The dimensions of the tumors were measured twice weekly with calipers, and tumor volumes were estimated using two-dimensional measurements of length and width and calculated with the formula [l×(w)^2]×0.52 (l, length; w, width) according to described procedures (M. Guba, P. von Breitenbuch, M. Steinbauer, G. Koehl, S. Flegel, M. Hornung, C. J. Bruns, C. Zuelke, S. Farkas, M. Anthuber, K. W. Jauch, E. K. Geissler, Nat Med 2002, 8, 128-135). The weights of the mice were also recorded twice weekly throughout the course of treatment. […]
substance,measurement,setting,value
[Yb2(OEP)2](μ-OH)2 [Complex 1],"IC50 ratio cisplatin/complex, MCF-7",[1]; IC50 of cisplatin divided by IC50 of complex,63.89
same,pIC50,"[1]; MTT, 37° C., 48 h, mean ± SD",6.26
same,"cytotoxic activity toward breast cancer cell line (MCF-7), times higher than that of cisplatin",[1]; compared with cisplatin,60 times
same,pIC50,[2],6.11 to 7.22
same,inhibition of the tumor volume,[3],40%
